Laboratory results from patent US20240294531A1, “COVALENT HETEROCYCLES AND USES THEREOF” (Kumquat Biosciences Inc., priority 2022, published 2024).

Key:
BTK wildtype protein = BTK wildtype protein (Homo sapiens (Human), UniProt Q06187); assay: BTK wildtype HTRF displacement assay; type: binding; details: 1-hour incubation; read-out: BTK (wt) IC50
Outline: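 Full-length N-terminal GST-tagged BTK incubated 1 h at room temperature with compound (6 doses, four-fold dilutions from 5 μM top) plus kinase tracer 239 and anti-GST-Tb antibody. Tracer displacement read as TR-FRET 665/620 ratio, background-subtracted using no-protein control. IC50 from four-parameter fit constrained 0–100% inhibition.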

BTK C481S protein = BTK C481S protein (Homo sapiens (Human), UniProt Q06187, C481S); assay: BTK C481S HTRF displacement assay; type: binding; details: 1-hour incubation
Chain of BTK C481S protein (Q06187 2-659 C481S): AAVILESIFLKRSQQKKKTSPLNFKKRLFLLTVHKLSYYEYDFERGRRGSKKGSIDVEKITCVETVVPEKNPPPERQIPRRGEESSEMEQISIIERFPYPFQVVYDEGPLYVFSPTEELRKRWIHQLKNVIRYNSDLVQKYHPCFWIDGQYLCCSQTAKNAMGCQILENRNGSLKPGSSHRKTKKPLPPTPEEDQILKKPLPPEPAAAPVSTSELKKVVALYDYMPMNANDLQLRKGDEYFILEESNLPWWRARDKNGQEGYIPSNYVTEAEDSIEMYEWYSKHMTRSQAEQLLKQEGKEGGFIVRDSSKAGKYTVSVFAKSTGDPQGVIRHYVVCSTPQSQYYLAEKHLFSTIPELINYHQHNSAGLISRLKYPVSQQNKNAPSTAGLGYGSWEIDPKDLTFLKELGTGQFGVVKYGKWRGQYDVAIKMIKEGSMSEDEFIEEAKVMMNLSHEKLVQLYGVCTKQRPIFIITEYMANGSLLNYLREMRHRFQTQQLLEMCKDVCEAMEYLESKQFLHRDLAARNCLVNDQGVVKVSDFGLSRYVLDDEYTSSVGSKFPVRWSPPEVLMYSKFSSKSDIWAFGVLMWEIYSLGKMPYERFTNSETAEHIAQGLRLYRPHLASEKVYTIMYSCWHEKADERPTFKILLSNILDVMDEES
Outline: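 N-terminal GST-tagged BTK C481S (2-659) incubated 1 hour at room temperature with compound (6 doses, four-fold from 5 μM), 50 nM kinase tracer 239 and anti-GST-Tb antibody. TR-FRET 665/620 ratio, background-subtracted; IC50 from constrained four-parameter fit. KI=IC50/(1+[Tracer]/Kd), tracer Kd 54 nM.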

Chain of BTK wildtype protein (Q06187 2-659): as the sequence (Q06187 2-659 C481S) above, with S480C counted along it

IC50 (BTK wildtype protein)	IC50 (BTK C481S protein)	Compound
≤ 1000 nM	≤ 1000 nM	COc1ccc(F)cc1C(=O)NCc1ccc(-c2nn(C(C)CCN(C)C(=O)n3cncn3)c3ncnc(N)c23)cc1 (stereo not drawn) [Compound 303, N-(3-(4-amino-3-(4-((5-fluoro-2-methoxybenzamido)methyl)phenyl)-1H-pyrazolo[3,4-d]pyrimidin-1-yl)butyl)-N-methyl-1H-1,2,4-triazole-1-carboxamide]
≤ 1000 nM	≤ 1000 nM	CN(C(=O)n1cnc(Cl)n1)C1CCC(n2nc(-c3ccc(Oc4ccccc4)cc3)c3c(N)ncnc32)CC1 (stereo not drawn) [Compound 299, N-(4-(4-amino-3-(4-phenoxyphenyl)-1H-pyrazolo[3,4-d]pyrimidin-1-yl)cyclohexyl)-3-chloro-N-methyl-1H-1,2,4-triazole-1-carboxamide]
≤ 1000 nM	≤ 1000 nM	NC(=O)c1c(-c2ccc(Oc3ccccc3)cc2)nn2c1NCC[C@H]2[C@H]1CCCCN1C(=O)n1cncn1 [Compound 266, (S)-7-((R)-1-(1H-1,2,4-triazole-1-carbonyl)piperidin-2-yl)-2-(4-phenoxyphenyl)-4,5,6,7-tetrahydropyrazolo[1,5-a] pyrimidine-3-carboxamide]
≤ 1000 nM	≤ 1000 nM	COc1ccc(F)cc1C(=O)NCc1ccc(-c2nn(CC3CN(C(=O)n4cncn4)C3)c(N)c2C(N)=O)cc1 [Compound 270, 1-((1-(1H-1,2,4-triazole-1-carbonyl)azetidin-3-yl)methyl)-5-amino-3-(4-((5-fluoro-2-methoxybenzamido)methyl)phenyl)-1H-pyrazole-4-carboxamide]
≤ 1000 nM	≤ 1000 nM	COc1ccc(F)cc1C(=O)NCc1ccc(-c2nn(C[C@H]3CCC[C@H]3CN(C)C(=O)n3cncn3)c3ncnc(N)c23)cc1 [Compound 307, N-(((1R,2S)-2-((4-amino-3-(4-((5-fluoro-2-methoxybenzamido)methyl)phenyl)-1H-pyrazolo [3,4-d]pyrimidin-1-yl)methyl)cyclopentyl)methyl)-N-methyl-1H-1,2,4-triazole-1-carboxamide]
≤ 1000 nM	≤ 1000 nM	CN(C(=O)n1cncn1)C1CCC2C(CNc3c(C(N)=O)c(-c4ccc(Oc5ccccc5)cc4)nn32)C1 (stereo not drawn) [Compound 272, 7-(N-methyl-1H-1,2,4-triazole-1-carboxamido)-2-(4-phenoxyphenyl)-4,5,5a,6,7,8,9,9a-octahydropyrazolo [1,5-a]quinazoline-3-carboxamide]
> 1000 nM	> 1000 nM	CC(C)[C@@H](C1CCNc2c(C(N)=O)c(-c3ccc(Oc4ccccc4)cc3)nn21)N(C)C(=O)n1cncn1 (stereo partly drawn) [Compound 301, 7-((S)-2-methyl-1-(N-methyl-1H-1,2,4-triazole-1-carboxamido)propyl)-2-(4-phenoxyphenyl)-4,5,6,7-tetrahydropyrazolo [1,5-a]pyrimidine-3-carboxamide]

The next lines start with the compound.

Compound	IC50 (BTK wildtype protein)	IC50 (BTK C481S protein)
COc1ccc(F)cc1C(=O)NCc1ccc(-c2nn(C[C@H](C3CC3)N(C)C(=O)n3cncn3)c3ncnc(N)c23)cc1 [Compound 132, (S)-N-(2-(4-amino-3-(4-((5-fluoro-2-methoxybenzamido)methyl)phenyl)-1H-pyrazolo[3,4-d]pyrimidin-1-yl)-1-cyclopropylethyl)-N-methyl-1H-1,2,4-triazole-1-carboxamide]	> 1000 nM	> 1000 nM
COc1ccc(F)cc1C(=O)NCc1ccc(-c2nn(-c3ccccc3CN(C)C(=O)n3cncn3)c3ncnc(N)c23)cc1 [Compound 143, N-(2-(4-amino-3-(4-((5-fluoro-2-methoxybenzamido)methyl)phenyl)-1H-pyrazolo[3,4-d]pyrimidin-1-yl)benzyl)-N-methyl-1H-1,2,4-triazole-1-carboxamide]	> 1000 nM	> 1000 nM
Cc1[nH]c2c(C(N)=O)cc(F)c(N3CCCC4(CCN4C(=O)n4cncn4)C3)c2c1C (stereo not drawn) [Compound 171, 4-(1-(1H-1,2,4-triazole-1-carbonyl)-1,6-diazaspiro[3.5]nonan-6-yl)-5-fluoro-2,3-dimethyl-1H-indole-7-carboxamide]	≤ 1000 nM	≤ 1000 nM
COc1ccc(F)cc1C(=O)NCc1ccc(-c2nn(C[C@H]3CCCC[C@H]3CN(C)C(=O)n3cncn3)c3ncnc(N)c23)cc1 [Compound 173, N-(((1R,2S)-2-((4-amino-3-(4-((5-fluoro-2-methoxybenzamido)methyl)phenyl)-1H-pyrazolo[3,4-d]pyrimidin-1-yl)methyl)cyclohexyl)methyl)-N-methyl-1H-1,2,4-triazole-1-carboxamide]	≤ 1000 nM	≤ 1000 nM
COc1ccc(F)cc1C(=O)NCc1ccc(-c2nn([C@@H]3CCC[C@@H](N(C)C(=O)n4cncn4)C3)c(N)c2C(N)=O)cc1 (relative stereo) [Compound 194, N-((1R,3R)-3-(5-amino-4-carbamoyl-3-(4-((5-fluoro-2-methoxybenzamido)methyl)phenyl)-1H-pyrazol-1-yl)cyclohexyl)-N-methyl-1H-1,2,4-triazole-1-carboxamide]	≤ 1000 nM	≤ 1000 nM
COc1ccc(F)cc1C(=O)NCc1ccc(-c2nn(C(C)CN(C)C(=O)n3cncn3)c3ncnc(N)c23)cc1 (stereo not drawn) [Compound 226, N-(2-(4-amino-3-(4-((5-fluoro-2-methoxybenzamido)methyl)phenyl)-1H-pyrazolo[3,4-d]pyrimidin-1-yl)propyl)-N-methyl-1H-1,2,4-triazole-1-carboxamide]	≤ 1000 nM	≤ 1000 nM
CCN(CC1CCNc2c(C(N)=O)c(-c3ccc(Oc4ccccc4)cc3)nn21)C(=O)n1cncn1 (stereo not drawn) [Compound 120, 7-((N-ethyl-1H-1,2,4-triazole-1-carboxamido)methyl)-2-(4-phenoxyphenyl)-4,5,6,7-tetrahydro-pyrazolo[1,5-a]pyrimidine-3-carboxamide]	> 1000 nM	> 1000 nM
CN(C(=O)n1cncn1)C1CCC(C2CCNc3c(C(N)=O)c(-c4ccc(Oc5ccccc5)cc4)nn32)C1 (stereo not drawn) [Compound 183, 7-(3-(N-methyl-1H-1,2,4-triazole-1-carboxamido)cyclopentyl)-2-(4-phenoxyphenyl)-4,5,6,7-tetrahydropyrazolo[1,5-a] pyrimidine-3-carboxamide]	≤ 1000 nM	≤ 1000 nM
NC(=O)c1c(-c2ccc(Oc3ccccc3)cc2)nn2c1NCC[C@H]2[C@@H]1CCCCN1C(=O)n1cncn1 [Compound 223, (S)-7-((S)-1-(1H-1,2,4-triazole-1-carbonyl)piperidin-2-yl)-2-(4-phenoxyphenyl)-4,5,6,7-tetrahydropyrazolo[1,5-a] pyrimidine-3-carboxamide]	> 1000 nM	> 1000 nM
COc1nn(C)cc1Nc1nc(N2CCC3(CCN3C(=O)n3cncn3)C2)nc2c1ncn2C (stereo not drawn) [Compound 107, (6-(6-((3-methoxy-1-methyl-1H-pyrazol-4-yl)amino)-9-methyl-9H-purin-2-yl)-1,6-diazaspiro[3.4]octan-1-yl)(1H-1,2,4-triazol-1-yl)methanone]	> 1000 nM	> 1000 nM
COc1ccc(F)cc1C(=O)NCc1ccc(-c2nn(C3CCCCC3CN(C)C(=O)n3cncn3)c3ncnc(N)c23)cc1 (stereo not drawn) [Compound 198, N-((2-(4-amino-3-(4-((5-fluoro-2-methoxybenzamido)methyl)phenyl)-1H-pyrazolo[3,4-d]pyrimidin-1-yl)cyclohexyl)methyl)-N-methyl-1H-1,2,4-triazole-1-carboxamide]	≤ 1000 nM	≤ 1000 nM
